{
  "source": "paper PMC10087775",
  "about": "“ProX from marine Synechococcus spp. show a sole preference for glycine‐betaine with differential affinity between ecotypes” (Environmental Microbiology, 2022)",
  "key": {"ChoX": {"biological_target": "ChoX", "set-up": "method as in Oswald et al. ([2008])", "details": "ref Oswald et al. ([2008]); read-out: Affinity (K D); cited from earlier work"}, "OpuAC": {"biological_target": "OpuAC", "set-up": "method as in Wolters et al. ([2010])", "details": "ref Wolters et al. ([2010]), read-out: Affinity (K D), cited from earlier work"}, "TmoX": {"biological_target": "TmoX", "set-up": "method as in Li et al. ([2015])", "details": "ref Li et al. ([2015]); read-out: Affinity (K D); cited from earlier work"}, "ProX [1]": {"biological_target": "ProX", "set-up": "method as in Schiefner, Breed, et al. ([2004])", "details": "ref Schiefner, Breed, et al. ([2004]); read-out: Affinity (K D); cited from earlier work"}, "WH8102_ProX [2]": {"biological_target": "T1, WH8102_ProX (Parasynechococcus marenigrum, UniProt Q7U4Z5)", "T1 sequence (Q7U4Z5 entry or part of it)": "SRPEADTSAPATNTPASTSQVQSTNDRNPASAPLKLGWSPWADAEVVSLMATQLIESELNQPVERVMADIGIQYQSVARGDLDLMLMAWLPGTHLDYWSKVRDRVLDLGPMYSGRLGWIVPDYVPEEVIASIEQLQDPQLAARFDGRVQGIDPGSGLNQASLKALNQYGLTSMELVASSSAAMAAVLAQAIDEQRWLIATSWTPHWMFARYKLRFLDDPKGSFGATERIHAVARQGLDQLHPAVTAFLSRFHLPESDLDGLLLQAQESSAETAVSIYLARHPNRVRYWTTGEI", "test": "Modified DSF (isothermal analysis, FoldAffinity) binding affinity of WH8102_ProX", "set-up": "species or system Synechococcus sp. WH8102", "details": "for Kd: read-out: Affinity (K D)", "description": "(§1) The DSF assay was modified to elucidate binding kinetics, following a published protocol specifically outlining this application, and validated using SBPs (Bai et al., [2019]). Briefly, a range of protein concentrations were tested (2–20 μM) to determine the optimal signal‐to‐noise ratio while requiring a low protein concentration (5 μM). Protein solutions were prepared in Buffer A at a concentration of 10 μM, with a 50× concentration of SYPRO Orange dye. Working stocks of ligands were prepared independently (in Buffer A) at the following concentrations: 0.4, 0.8, 1.6, 3.2, 6.4, 12.8, 25, 50, 100, 200, 2000 μM. ProX protein and ligands (10 μl each) were both delivered in triplicate into a 96‐well plate (final volume 20 μl). Plates were centrifuged in a benchtop plate spinner (1 min) to ensure sample homogeneity before recording fluorescence data across the thermal ramp as previously described.\n(§2) Data were processed using two independent software packages: the provided Python package (Bai et al., [2019]) and the web‐based FoldAffinity tool (Niebling et al., [2021]) to ensure their consistency and determine affinity values. The final values reported were taken from FoldAffinity. Processed results were then plotted (GraphPad Prism) to generate publication‐quality figures of the processed data.\n(§3) Purified ProX samples were subjected to binding kinetics determination using a modified DSF approach (Bai et al., [2019]; Niebling et al., [2021]). This approach was selected due to aberrant noise in calorimetric and tryptophan quenching experiments, attributed to possible dimer‐monomer interconversion co‐occurring with ligand‐binding events. […] This is related to the proportion of folded versus unfolded protein at a single temperature (isothermal analysis) using a selected temperature value (T sel ) slightly above the T M previously determined. Using the FoldAffinity tool (Niebling et al., [2021]), non‐linear regression and curve fitting of the processed thermal melt curves allowed the determination of ligand dissociation constants (K D ) for each protein and ligand partner."}, "(UniProt A0A7G8ITR3)": {"biological_target": "(UniProt A0A7G8ITR3)", "sequence (A0A7G8ITR3 40-334 limits assumed)": "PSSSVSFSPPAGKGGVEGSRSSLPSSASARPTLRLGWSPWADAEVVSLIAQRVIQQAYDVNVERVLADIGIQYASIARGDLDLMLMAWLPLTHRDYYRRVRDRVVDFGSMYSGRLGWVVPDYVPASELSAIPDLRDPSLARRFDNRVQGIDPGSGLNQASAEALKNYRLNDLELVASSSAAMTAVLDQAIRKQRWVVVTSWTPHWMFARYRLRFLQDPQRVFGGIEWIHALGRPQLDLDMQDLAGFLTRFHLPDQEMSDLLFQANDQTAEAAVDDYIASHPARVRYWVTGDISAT", "test": "Modified DSF (isothermal analysis, FoldAffinity) binding affinity of MITS9220_ProX", "set-up": "species or system Synechococcus sp. MITS9220", "details": "read-out: Affinity (K D)", "description": "as §1, §2, §3"}, "ProX [3]": {"biological_target": "ProX", "set-up": "method as in Schiefner, Holtmann, et al. ([2004])", "details": "ref Schiefner, Holtmann, et al. ([2004]); read-out: Affinity (K D); cited from earlier work"}, "WH8102_ProX [4]": {"biological_target": "T1, WH8102_ProX", "test": "DSF thermal melt ligand screening of WH8102_ProX", "format": "binding, Synechococcus sp. WH8102", "details": "ligand tested independently by DSF", "description": "(§4) Commercially available libraries of small molecules were tested as potential binding partners to ProX by recording differential scanning fluorimetry (DSF) responses over a thermal gradient (Neisen et al., [2007]). SYPRO Orange dye (Invitrogen) was used to monitor fold integrity in discrete protein mixtures by measuring fluorescence at 590 nm following excitation at 485 nm using a Stratagene MX3000P q‐PCR instrument. Compounds tested in 96‐well blocks incorporated common protein stabilizing ligands (HR2‐096 Silver Bullets, Hampton Research) and single‐molecule osmolyte sources (MicroPlate PM9, Biolog Inc). The concentration of these compounds following reaction set‐up was ~4 μM, and, therefore below the concentration required to effect complete saturation of the binding pocket. Each condition was tested in triplicate, with each plate containing a control well with no additive.\n(§5) Thermal melt curves were analysed using the analysis template provided (Neisen et al., [2007]) and fitting of Boltzmann distribution (GraphPad Prism) for the determination of mid‐point thermal melt temperatures (Bai et al., [2019]). The only condition (Silver Bullets well #D8) leading to a significant increase (>3°C) in melting temperature was deconvoluted to identify the single component leading to such a change and repeated in triplicate."}, "MITS9220_ProX": {"tested_on": "MITS9220_ProX", "test": "DSF thermal melt ligand screening of MITS9220_ProX", "format": "binding, Synechococcus sp. MITS9220", "details": "ligand tested independently by DSF", "description": "as §4, §5"}, "[5]": {"details": "0.50 M NaCl (Buffer A), Tsel 62°C"}},
  "note": "Like-named read-outs stand apart in the source and are kept apart here.",
  "data": [
    {"smiles": "CC(=O)OCC[N+](C)(C)C", "note": "[Acetylcholine]", "values": [
      {"measurement": "Kd", "setting": "ChoX", "result": 145, "unit": "µM"}
    ]},
    {"smiles": "C[N+](C)(C)CC(O)CC(=O)[O-]", "note": "(stereo not shown) [Carnitine]", "values": [
      {"measurement": "Kd", "setting": "OpuAC; dash with footnote b", "result": "> 10000", "unit": "µM"}
    ]},
    {"smiles": "C[N+](C)(C)CCO", "note": "[Choline]", "values": [
      {"measurement": "Kd", "setting": "TmoX", "result": 3.8, "unit": "µM"},
      {"measurement": "Kd", "setting": "ChoX", "result": 2.7, "unit": "µM"}
    ]},
    {"smiles": "O=C(O)[C@@H]1CCCN1", "note": "[Proline]", "values": [
      {"measurement": "Kd", "setting": "OpuAC; dash with footnote b", "result": "> 10000", "unit": "µM"}
    ]},
    {"smiles": "C[N+](C)(C)[O-]", "note": "[Trimethylamine oxide]", "values": [
      {"measurement": "Kd", "setting": "TmoX", "result": 1.6, "unit": "µM"}
    ]},
    {"smiles": "C[N+](C)(C)CC(=O)[O-]", "note": "[glycine betaine]", "values": [
      {"measurement": "Kd", "setting": "ProX [1]", "result": 1, "unit": "µM"},
      {"measurement": "Kd", "setting": "WH8102_ProX [2]; 0.25 M NaCl", "result": "13 ± 0.5", "unit": "µM"},
      {"measurement": "Kd", "setting": "WH8102_ProX [2]; 0.50 M NaCl (Buffer A)", "result": 12, "unit": "µM"},
      {"measurement": "Kd", "setting": "WH8102_ProX [2]; 1.5 M NaCl", "result": "13 ± 0.7", "unit": "µM"},
      {"measurement": "Kd", "setting": "(UniProt A0A7G8ITR3); 0.25 M NaCl", "result": 1.1, "unit": "µM"},
      {"measurement": "Kd", "setting": "(UniProt A0A7G8ITR3); [5]", "result": 1.2, "unit": "µM"},
      {"measurement": "Kd", "setting": "(UniProt A0A7G8ITR3); 1.5 M NaCl", "result": 0.52, "unit": "µM"},
      {"measurement": "Kd", "setting": "ProX [3]", "result": 0.06, "unit": "µM"}
    ]},
    {"smiles": "C[N+]1(C)CCC[C@H]1C(=O)[O-]", "note": "[proline betaine]", "values": [
      {"measurement": "Kd", "setting": "ProX [1]", "result": 5, "unit": "µM"},
      {"measurement": "Kd", "setting": "WH8102_ProX [2]; 0.50 M NaCl (Buffer A)", "result": "250 ± 80", "unit": "µM"},
      {"measurement": "shifts in observed melting temperatures upon incremental addition of ligand", "setting": "WH8102_ProX [2]; modified DSF, Figure S3", "result": "negligible shifts"},
      {"measurement": "Kd", "setting": "(UniProt A0A7G8ITR3); [5]", "result": "> 1000", "unit": "µM"},
      {"measurement": "TM shift", "setting": "WH8102_ProX [4]", "result": "< 2", "unit": "°C"},
      {"measurement": "TM shift", "setting": "MITS9220_ProX", "result": "approximately 4 °C"},
      {"measurement": "Kd", "setting": "ProX [3]", "result": 0.05, "unit": "µM"},
      {"measurement": "Kd", "setting": "OpuAC", "result": 41, "unit": "µM"}
    ]}
  ]
}
